Patent US9409884B2 (Rigel Pharmaceuticals, Inc., priority 2012, dated 2016)

Molecular target: AMPK
Test: AMPK activation, enzyme-linked immunosorbent assay
Type: biochemical
Details: Table 14, compounds of Table 7
How it was run: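 Read-out: ELISA, used to detect compound-driven activation of AMPK.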

EC50 | Compound
1 to 10 µM | COc1ccc(CN2CCC(NC(=O)c3ccc(C(=O)N4CCC(Oc5ccc6c(c5)ncn6C)CC4)nc3)CC2)cc1 [Compound 7-40, N-(1-(4-methoxybenzyl)piperidin-4-yl)-6-(4-(1-methyl-1H-benzo[d]imidazol-5-yloxy)piperidine-1-carbonyl)nicotinamide]
< 1 µM | COc1ccc(C(=O)C2CCN(C(=O)c3ccc(C(=O)NC4CCN(Cc5ccc(-n6cccn6)cc5)C[C@H]4F)cn3)CC2)cc1 (stereo partly drawn) [Compound 7-41, N-((3,4-trans)-1-(4-(1H-pyrazol-1-yl)benzyl)-3-fluoropiperidin-4-yl)-6-(4-(4-methoxybenzoyl)piperidine-1-carbonyl)nicotinamide]
1 to 10 µM | COc1ccc(C(=O)C2CCN(C(=O)c3ccc(C(=O)NC4CCN(Cc5ccc(-n6ccnc6)cc5)C[C@H]4F)cn3)CC2)cc1 (stereo partly drawn) [Compound 7-42, N-((3,4-trans)-1-(4-(1H-imidazol-1-yl)benzyl)-3-fluoropiperidin-4-yl)-6-(4-(4-methoxybenzoyl)piperidine-1-carbonyl)nicotinamide]
< 1 µM | COc1ccc(C(=O)C2CCN(C(=O)c3ccc(C(=O)NC4CCN(Cc5ccc(F)c(OC)c5)C[C@H]4F)cn3)CC2)cc1 (stereo partly drawn) [Compound 7-43, N-((3,4-trans)-3-fluoro-1-(4-fluoro-3-methoxybenzyl)piperidin-4-yl)-6-(4-(4-methoxybenzoyl)piperidine-1-carbonyl)nicotinamide]
< 1 µM | COc1ccc(C(=O)C2CCN(C(=O)c3ccc(C(=O)NC4CCN(Cc5ccc(OC)c(F)c5)C[C@H]4F)cn3)CC2)cc1 (stereo partly drawn) [Compound 7-44, N-((3,4-trans)-3-fluoro-1-(3-fluoro-4-methoxybenzyl)piperidin-4-yl)-6-(4-(4-methoxybenzoyl)piperidine-1-carbonyl)nicotinamide]
< 1 µM | COc1ccc(C(=O)C2CCN(C(=O)c3ccc(C(=O)NC4CCN(Cc5ccc(F)c(C(F)(F)F)c5)C[C@H]4F)cn3)CC2)cc1 (stereo partly drawn) [Compound 7-45, N-((3,4-trans)-3-fluoro-1-(4-fluoro-3-(trifluoromethyl)benzyl)piperidin-4-yl)-6-(4-(4-methoxybenzoyl)piperidine-1-carbonyl)nicotinamide]
1 to 10 µM | CC(=O)c1ccc(Oc2ccc(NC(=O)c3ccc(C(=O)N4CCC(Oc5ccc6c(c5)ncn6C)CC4)nc3)cn2)cc1 [Compound 7-46, N-(6-(4-acetylphenoxy)pyridin-3-yl)-6-(4-(1-methyl-1H-benzo[d]imidazol-5-yloxy)piperidine-1-carbonyl)nicotinamide]
< 1 µM | Cc1cc(OC2CCN(C(=O)c3ccc(C(=O)NC4CCN(Cc5ccc(OC(F)(F)F)cc5)C[C@H]4F)cn3)CC2)ccc1S(C)(=O)=O (stereo partly drawn) [Compound 7-47, N-((3,4-trans)-3-fluoro-1-(4-(trifluoromethoxy)benzyl)piperidin-4-yl)-6-(4-(3-methyl-4-(methylsulfonyl)phenoxy)piperidine-1-carbonyl) nicotinamide]
1 to 10 µM | O=C(NC1CCN(Cc2ccc(OC(F)(F)F)cc2)C[C@H]1F)c1ccc(C(=O)N2CCC(Oc3ccc(S(=O)(=O)C4CC4)cc3)CC2)nc1 (stereo partly drawn) [Compound 7-48, 6-(4-(4-(cyclopropylsulfonyl)phenoxy)piperidine-1-carbonyl)-N-((3,4- trans)-3-fluoro-1-(4-(trifluoromethoxy)benzyl)piperidin-4-yl)nicotinamide]
1 to 10 µM | CS(=O)(=O)c1ccc(OC2CCN(C(=O)c3ccc(C(=O)NC4CCN(Cc5ccc(OC(F)(F)F)cc5)C[C@H]4F)cn3)CC2)cc1 (stereo partly drawn) [Compound 7-49, N-((3,4-trans)-3-fluoro-1-(4-(trifluoromethoxy)benzyl)piperidin-4-yl)-6-(4-(4-(methylsulfonyl)phenoxy)piperidine-1-carbonyl) nicotmamide]
< 1 µM | Cc1nc2cc(OC3CCN(C(=O)c4ccc(C(=O)NC5CCN(Cc6ccc(OC(F)(F)F)cc6)C[C@H]5F)cn4)CC3)ccc2s1 (stereo partly drawn) [Compound 7-51, N-((3,4-trans)-3-fluoro-1-(4-(trifluoromethoxy)benzyl)piperidin-4-yl)-6-(4-(2-methylbenzo[d]thiazol-5-yloxy)piperidine-1-carbonyl)nicotinamide]
< 1 µM | CC(=O)c1ccc(OC2CCN(C(=O)c3ccc(C(=O)NC4CCN(Cc5ccc(OC(F)(F)F)cc5)C[C@H]4F)cn3)CC2)cc1 (stereo partly drawn) [Compound 7-52, 6-(4-(4-acetylphenoxy)piperidine-1-carbonyl)-N-((3,4-trans)-3-fluoro-1-(4-(trifluoromethoxy)benzyl)piperidin-4-yl)nicotinamide]
< 1 µM | O=C(NC1CCN(Cc2ccc(OC(F)(F)F)cc2)C[C@H]1F)c1ccc(C(=O)N2CCC(C(=O)c3ccc(N4CCOCC4)cc3)CC2)nc1 (stereo partly drawn) [Compound 7-53, N-((3,4-trans)-3-fluoro-1-(4-(trifluoromethoxy)benzyl)piperidin-4-yl)-6-(4-(4-morpholinobenzoyl)piperidine-1-carbonyl)nicotinamide]
1 to 10 µM | COc1ccc(C(=O)C2CCN(C(=O)c3ccc(C(=O)NC4CCN(Cc5ccc(OC)c(C#N)c5)C[C@H]4F)cn3)CC2)cc1 (stereo partly drawn) [Compound 7-55, N-((3,4-trans)-1-(3-cyano-4-methoxybenzyl)-3-fluoropiperidin-4-yl)-6-(4-(4-methoxybenzoyl)piperidine-1-carbonyl)nicotinamide]
1 to 10 µM | COc1ccc(C(=O)C2CCN(C(=O)c3ccc(C(=O)NC4CCN(Cc5ccc(C#N)cc5C)C[C@H]4F)cn3)CC2)cc1 (stereo partly drawn) [Compound 7-56, N-((3,4-trans)-1-(4-cyano-2-methylbenzyl)-3-fluoropiperidin-4-yl)-6-(4-(4-methoxybenzoyl)piperidine-1-carbonyl)nicotinamide]
< 1 µM | O=C(NC1CCN(Cc2ccc(OC(F)(F)F)cc2)C[C@H]1F)c1ccc(C(=O)N2CCC(C(=O)c3ccc(N4CCCC4)cc3)CC2)nc1 (stereo partly drawn) [Compound 7-57, N-((3,4-trans)-3-fluoro-1-(4-(trifluoromethoxy)benzyl)piperidin-4-yl)-6-(4-(4-(pyrrolidin-1-yl)benzoyl)piperidine-1-carbonyl) nicotinamide]
< 1 µM | COc1ccc(C(=O)C2CCN(C(=O)c3ccc(C(=O)NC4CCN(Cc5ccc(C)c(C#N)c5)C[C@H]4F)cn3)CC2)cc1 (stereo partly drawn) [Compound 7-58, N-((3,4-trans)-1-(3-cyano-4-methylbenzyl)-3-fluoropiperidin-4-yl)-6-(4-(4-methoxybenzoyl)piperidine-1-carbonyl)nicotinamide]
< 1 µM | COc1ccc(C(=O)C2CCN(C(=O)c3ccc(C(=O)NC4CCN(Cc5ccc(C#N)c(C)c5)C[C@H]4F)cn3)CC2)cc1 (stereo partly drawn) [Compound 7-59, N-((3,4-trans)-1-(4-cyano-3-methylbenzyl)-3-fluoropiperidin-4-yl)-6-(4-(4-methoxybenzoyl)piperidine-1-carbonyl)nicotinamide]
1 to 10 µM | CS(=O)(=O)c1ccc(C(=O)C2CCN(C(=O)c3ccc(C(=O)NC4CCN(Cc5ccc(OC(F)(F)F)cc5)C[C@H]4F)cn3)CC2)cc1 (stereo partly drawn) [Compound 7-61, N-((3,4-trans)-3-fluoro-1-(4-(trifluoromethoxy)benzyl)piperidin-4-yl)-6-(4-(4-(methylsulfonyl)benzoyl)piperidine-1-carbonyl) nicotinamide]
< 1 µM | N#Cc1ccc(OC2CCN(C(=O)c3ccc(C(=O)NC4CCN(Cc5ccc(OC(F)(F)F)cc5)CC4F)cn3)CC2)cc1 (stereo not drawn) [Compound 7-62, 6-(4-(4-cyanophenoxy)piperidine-1-carbonyl)-N-((3,4-trans)-3-fluoro-1-(4-(trifluoromethoxy)benzyl)piperidin-4-yl)nicotinamide]
